From ChEMBL document CHEMBL2034951 (J Med Chem, 2011)
The source made the active and inactive calls. No cut-off for these calls is given here.

Assays:
[1] = biological target: T1, Prostaglandin G/H synthase 1 (Ovis aries) (UniProt P05979); experiment: Reversible binding to ram seminal vesicle COX1 at 300 uM at 600 MHz and 37 degC by saturation transfer difference 1[H]NMR spectroscopy
T1 sequence (whole entry): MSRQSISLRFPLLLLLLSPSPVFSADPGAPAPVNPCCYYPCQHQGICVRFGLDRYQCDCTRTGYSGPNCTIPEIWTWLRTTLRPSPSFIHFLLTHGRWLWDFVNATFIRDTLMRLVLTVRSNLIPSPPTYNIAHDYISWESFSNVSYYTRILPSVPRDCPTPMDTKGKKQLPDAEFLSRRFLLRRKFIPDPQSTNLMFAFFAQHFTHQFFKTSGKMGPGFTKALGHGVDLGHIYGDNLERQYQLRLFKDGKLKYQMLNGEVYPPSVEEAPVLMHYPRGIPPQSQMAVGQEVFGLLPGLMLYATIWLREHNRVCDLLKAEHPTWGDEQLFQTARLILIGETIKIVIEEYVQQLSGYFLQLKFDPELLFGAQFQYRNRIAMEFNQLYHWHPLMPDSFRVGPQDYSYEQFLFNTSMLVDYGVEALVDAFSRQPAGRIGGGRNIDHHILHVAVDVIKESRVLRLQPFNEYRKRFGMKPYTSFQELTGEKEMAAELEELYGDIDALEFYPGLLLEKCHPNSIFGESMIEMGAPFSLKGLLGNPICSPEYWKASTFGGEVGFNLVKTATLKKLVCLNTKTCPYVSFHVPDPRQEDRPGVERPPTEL

[2] = biological target: T2, Prostaglandin G/H synthase 2 (Homo sapiens, UniProt P35354); experiment: Instantaneous inhibition of human COX2 measured immediately after incubation of enzyme with compound
T2 sequence (P35354 whole entry): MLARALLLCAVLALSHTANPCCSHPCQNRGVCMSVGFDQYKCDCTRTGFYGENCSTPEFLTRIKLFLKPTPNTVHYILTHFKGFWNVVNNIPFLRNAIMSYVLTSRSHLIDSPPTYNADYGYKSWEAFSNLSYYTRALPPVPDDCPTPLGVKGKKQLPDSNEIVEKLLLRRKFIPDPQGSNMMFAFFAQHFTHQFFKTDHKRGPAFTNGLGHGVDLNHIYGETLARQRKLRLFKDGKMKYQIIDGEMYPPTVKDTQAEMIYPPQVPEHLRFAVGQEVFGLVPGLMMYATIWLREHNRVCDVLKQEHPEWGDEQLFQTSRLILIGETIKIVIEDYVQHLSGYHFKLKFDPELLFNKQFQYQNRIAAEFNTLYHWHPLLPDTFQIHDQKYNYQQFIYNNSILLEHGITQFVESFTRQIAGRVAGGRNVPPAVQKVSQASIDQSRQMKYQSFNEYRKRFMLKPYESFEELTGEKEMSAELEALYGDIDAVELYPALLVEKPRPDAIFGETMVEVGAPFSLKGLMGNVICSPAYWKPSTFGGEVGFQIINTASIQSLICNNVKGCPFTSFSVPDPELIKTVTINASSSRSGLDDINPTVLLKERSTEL

[3] = biological target: T2, Prostaglandin G/H synthase 2; experiment: Inhibition of human COX2 measured after pre-incubation of enzyme with compound

Row | Compound | Activity [1] | IC50 [2] | IC50 [3]
1 | CC(C)Cc1ccc(C(C)C(=O)O)cc1 (stereo not given) | Active | – | –
2 | O=C(O)Cc1ccccc1Nc1c(Cl)cccc1Cl | Active | – | –
3 | O=C(c1ccccc1)c1ccc2n1CCC2C(=O)O (racemic) [KETOROLAC TROMETHAMINE] | Active | 60.5 µM | 0.12 µM
